Test results from patent US9795681B2, “Tamper resistant dosage form comprising an adsorbent and an adverse agent” (Purdue Pharma L.P., priority 2004, dated 2017).
Structures can show the parent of a compound that is named as a salt.

Tests used:
[1] = administered orally; cited from earlier work
[2] = Adsorption of naltrexone hydrochloride onto activated charcoal from 0.1N HCl, HPLC of liquid phase; assay type: physicochemical; conditions: 37° C.; for Naltrexone adsorbed from solution / Naltrexone adsorbed onto the activated charcoal / Naltrexone content in fluid / Naltrexone content in fluid, HPLC area %: 0.1N aqueous HCl
Experimental: Example 1 describes a non-limiting method for making an adsorbent/adverse agent. The adsorbent used was DARCO activated charcoal obtained from EM Science, an affiliate of Merck KGaA of Darmstadt, Germany. The DARCO activated charcoal used was 20 to 40 mesh black granular charcoal which passed the USP absorptive power test (see The United States Pharmacopeia, 26:404 (2003)) for activated charcoal.
Adsorption of naltrexone: The activated charcoal (5.02 g) was added to a solution of naltrexone hydrochloride (504.26 mg) (obtained from Mallinkrodt, St. Louis, Mo.) in 0.1N HCI (900 mL). The resultant mixture was stirred at 100 rpm for 120 h at 37° C., and the adsorption (or uptake) of naltrexone hydrochloride into the activated charcoal was monitored by measuring the decrease in concentration of the naltrexone hydrochloride in the liquid phase using high performance liquid chromatography (HPLC). The data was used to calculate the amount of naltrexone adsorbed onto the activated charcoal, e.g., after 2 h, as follows: […]

[3] = Dynamic desorption of the Charcoal/Naltrexone by washing with 0.1N HCl; assay type: physicochemical; conditions: 1 L aliquots of 0.1N HCl, 25° C.
Experimental: IN HCI. The concentration of naltrexone hydrochloride in the wash filtrates was measured using HPLC as described above.

C[C@H]1[C@H]2Cc3ccc(O)cc3[C@]1(C)CCN2CC1CC1 [cyclazocine]
duration of action [1]: ~24 h

O=C1CC[C@@]2(O)[C@H]3Cc4ccc(O)c5c4[C@@]2(CCN3CC2CC2)[C@H]1O5 [naltrexone]
duration of action [1]: ~24 h

O=C1CC[C@@]2(O)[C@H]3Cc4ccc(O)c5c4[C@@]2(CCN3CC2CC2)[C@H]1O5 [naltrexone hydrochloride]
Naltrexone adsorbed from solution ([2]; time 0 min): 0.00%
Naltrexone adsorbed onto the activated charcoal ([2]; time 0 min): 0.00 mg
Naltrexone content in fluid ([2]; time 0 min): 504.26 mg
Naltrexone content in fluid, HPLC area % ([2]; time 0 min): 4.836 HPLC area %
Naltrexone adsorbed from solution ([2]; time 10 min): 23.34%
Naltrexone adsorbed onto the activated charcoal ([2]; time 10 min): 117.69 mg
Naltrexone content in fluid ([2]; time 10 min): 386.57 mg
Naltrexone content in fluid, HPLC area % ([2]; time 10 min): 3.707 HPLC area %
Naltrexone adsorbed from solution ([2]; time 20 min): 32.01%
Naltrexone adsorbed onto the activated charcoal ([2]; time 20 min): 161.39 mg
Naltrexone content in fluid ([2]; time 20 min): 342.87 mg
Naltrexone content in fluid, HPLC area % ([2]; time 20 min): 3.288 HPLC area %
Naltrexone adsorbed from solution ([2]; time 30 min): 37.62%
Naltrexone adsorbed onto the activated charcoal ([2]; time 30 min): 189.69 mg
Naltrexone content in fluid ([2]; time 30 min): 314.57 mg
Naltrexone content in fluid, HPLC area % ([2]; time 30 min): 3.017 HPLC area %
Naltrexone adsorbed from solution ([2]; time 40 min): 41.36%
Naltrexone adsorbed onto the activated charcoal ([2]; time 40 min): 208.55 mg
Naltrexone content in fluid ([2]; time 40 min): 295.71 mg
Naltrexone content in fluid, HPLC area % ([2]; time 40 min): 2.836 HPLC area %
Naltrexone adsorbed from solution ([2]; time 50 min): 45.37%
Naltrexone adsorbed onto the activated charcoal ([2]; time 50 min): 228.81 mg
Naltrexone content in fluid ([2]; time 50 min): 275.45 mg
Naltrexone content in fluid, HPLC area % ([2]; time 50 min): 2.642 HPLC area %
Naltrexone adsorbed from solution ([2]; time 60 min): 47.75%
Naltrexone adsorbed onto the activated charcoal ([2]; time 60 min): 240.76 mg
Naltrexone content in fluid ([2]; time 60 min): 263.50 mg
Naltrexone content in fluid, HPLC area % ([2]; time 60 min): 2.527 HPLC area %
Naltrexone adsorbed from solution ([2]; time 70 min): 49.10%
Naltrexone adsorbed onto the activated charcoal ([2]; time 70 min): 247.60 mg
Naltrexone content in fluid ([2]; time 70 min): 256.66 mg
Naltrexone content in fluid, HPLC area % ([2]; time 70 min): 2.461 HPLC area %
Naltrexone adsorbed from solution ([2]; time 80 min): 50.76%
Naltrexone adsorbed onto the activated charcoal ([2]; time 80 min): 255.97 mg
Naltrexone content in fluid ([2]; time 80 min): 248.29 mg
Naltrexone content in fluid, HPLC area % ([2]; time 80 min): 2.381 HPLC area %
Naltrexone adsorbed from solution ([2]; time 90 min): 52.98%
Naltrexone adsorbed onto the activated charcoal ([2]; time 90 min): 267.16 mg
Naltrexone content in fluid ([2]; time 90 min): 237.10 mg
Naltrexone content in fluid, HPLC area % ([2]; time 90 min): 2.274 HPLC area %
Naltrexone adsorbed from solution ([2]; time 100 min): 54.38%
Naltrexone adsorbed onto the activated charcoal ([2]; time 100 min): 274.20 mg
Naltrexone content in fluid ([2]; time 100 min): 230.06 mg
Naltrexone content in fluid, HPLC area % ([2]; time 100 min): 2.206 HPLC area %
Naltrexone adsorbed from solution ([2]; time 120 min): 55.36%
Naltrexone adsorbed onto the activated charcoal ([2]; time 120 min): 279.16 mg
Naltrexone content in fluid ([2]; time 120 min): 225.10 mg
Naltrexone content in fluid, HPLC area % ([2]; time 120 min): 2.159 HPLC area %
time within which substantially all of the naltrexone adsorption was completed ([2]; onto activated charcoal, 0.1N HCl): ≤ 1.5 h
wash steps during which the majority of the desorption of naltrexone hydrochloride occurred [3]: ≤ 18 wash steps
